US10280163B2 (BeiGene, Ltd., priority 2015, dated 2019)
Where two headings read alike, the source gives them in different places.

Key:
Recombinant IDO1 = target: T1, Recombinant IDO1 (Homo sapiens, UniProt P14902); test: IDO1 enzymatic assay; type: biochemical
T1 construct: His tag (N); made in house; host or cells: E. coli
Summary of the method: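 N-terminally His-tagged enzyme from E. coli (50 nM) was incubated with compound, 1.3 mM D-tryptophan, 5 mM ascorbate, 6.25 μM methylene blue and 0.4 mg/mL catalase in 50 mM potassium phosphate pH 7.5, 0.1% BSA for 1.5 h at 24° C. N′-formylkynurenine formation was followed at 321 nm for 1 h; IC50 from rate slopes.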

Recombinant TDO = target: T2, Recombinant TDO (Homo sapiens, UniProt P48775); test: TDO enzymatic assay; type: biochemical
T2 construct: His tag (C); made in house; host or cells: E. coli
Procedure: Recombinant TDO was overexpressed and purified from E. coli cells with a C-terminal His tag. TDO enzymatic assay was performed using the same methodology as IDO1 enzymatic assay except that 100 nM TDO and 0.5 mM L-tryptophan (Km concentration) were used in the TDO assay.

[1] = target: T3, cellular IDO1 in HeLa cells (Homo sapiens, UniProt P14902); test: HeLa cell-based IDO1 Kyn (kynurenine) production assay; details: Table 1, 5-substituted imidazo[1,5-a]pyridines, IFN-γ 100 ng/mL, 48 hours
T3 construct: endogenous in cells; host or cells: HeLa cells (American Type Tissue Culture Collection), induced with human recombinant IFN-γ
Summary of the method: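 IFN-γ-induced HeLa cells (100 ng/mL) in phenol red-free DMEM with 0.4 mM L-Trp, compounds added together with IFN-γ, 48 h at 37 °C. Supernatant Kyn read at 480 nm after TCA precipitation and 4-(dimethylamino)benzaldehyde reaction. IC50 from four-parameter logistic fit.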

[2] = Table 1, 5-substituted imidazo[1,5-a]pyridines, 50 nM IDO1, 1.3 mM D-tryptophan, read-out: Enzyme IC50 (nM) IDO1
[3] = Table 1, 5-substituted imidazo[1,5-a]pyridines, 100 nM TDO, 0.5 mM L-tryptophan, read-out: Enzyme IC50 (nM) TDO
[4] = selectivity examples, read-out: enzymatic IC50 value to IDO1
[5] = selectivity examples, read-out: enzymatic IC50 value to TDO

T2 sequence (P48775 whole entry): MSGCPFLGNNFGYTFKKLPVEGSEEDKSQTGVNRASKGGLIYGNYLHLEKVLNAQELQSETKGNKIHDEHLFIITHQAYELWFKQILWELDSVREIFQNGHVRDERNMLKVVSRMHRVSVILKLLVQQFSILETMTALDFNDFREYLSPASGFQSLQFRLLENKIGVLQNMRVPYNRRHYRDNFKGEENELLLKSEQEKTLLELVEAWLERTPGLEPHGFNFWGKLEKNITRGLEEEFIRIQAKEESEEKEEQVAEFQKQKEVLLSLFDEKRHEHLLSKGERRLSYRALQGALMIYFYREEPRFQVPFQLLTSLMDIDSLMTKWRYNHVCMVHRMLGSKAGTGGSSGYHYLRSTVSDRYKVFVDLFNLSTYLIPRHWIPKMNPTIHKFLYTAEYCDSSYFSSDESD
T1 sequence (P14902 whole entry): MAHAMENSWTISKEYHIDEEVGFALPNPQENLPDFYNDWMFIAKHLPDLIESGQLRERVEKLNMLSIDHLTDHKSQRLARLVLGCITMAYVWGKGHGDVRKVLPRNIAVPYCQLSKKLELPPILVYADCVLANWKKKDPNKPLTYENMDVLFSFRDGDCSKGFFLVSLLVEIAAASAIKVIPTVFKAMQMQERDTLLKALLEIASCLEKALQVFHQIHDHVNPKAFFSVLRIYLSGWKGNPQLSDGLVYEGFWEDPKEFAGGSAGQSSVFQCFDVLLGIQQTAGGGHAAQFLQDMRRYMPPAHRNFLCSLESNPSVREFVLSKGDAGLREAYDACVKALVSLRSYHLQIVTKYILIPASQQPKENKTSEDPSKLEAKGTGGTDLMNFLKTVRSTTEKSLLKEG
T3 sequence (P14902 whole entry): as above

Row | Compound | IC50 (Recombinant IDO1; [2]) | IC50 (Recombinant TDO; [3]) | EC50 [1] | IC50 (Recombinant IDO1; [4]) | IC50 (Recombinant TDO; [5])
1 | Clc1cc(CC2CCCCC2)n2cncc2c1 [Example A026, 7-chloro-5-(cyclohexylmethyl)imidazo[1,5-a]pyridine] | 107 nM | 73 nM | > 10000 nM |  | 
2 | OC(c1cc(Cl)cc2cncn12)C1CCCCC1 (stereo not drawn) [Example A101, (7-chloroimidazo[1,5-a]pyridin-5-yl)(cyclohexyl)methanol] | 29 nM | 68 nM | 1360 nM |  | 
3 | O[C@H](c1cc(Cl)cc2cncn12)C1CCCCC1 [Example A101a, (S)-(7-chloroimidazo[1,5-a]pyridin-5-yl)(cyclohexyl)methanol] | 9.6 nM | 29 nM | 326 nM |  | 
4 | OC(c1cc(C(F)(F)F)cc2cncn12)C1CCCCC1 (stereo not drawn) [Example A109, cyclohexyl(7-(trifluoromethyl)imidazo[1,5-a]pyridin-5-yl)methanol] | 49 nM | 110 nM | 1540 nM |  | 
5 | OC(c1cc(Br)cc2cncn12)C1CCCCC1 (stereo not drawn) [Example A111, (7-bromoimidazo[1,5-a]pyridin-5-yl)(cyclohexyl)methanol] | 25 nM | 63 nM | 962 nM |  | 
6 | OC(c1cc(Br)cc2cncn12)C1CCCC1 (stereo not drawn) [Example A112, (7-bromoimidazo[1,5-a]pyridin-5-yl)(cyclopentyl)methanol] | 24 nM | 48 nM | 1040 nM |  | 
7 | OC(CCC1CCCCC1)c1cc(Cl)cc2cncn12 (stereo not drawn) [Example A113, 1-(7-chloroimidazo[1,5-a]pyridin-5-yl)-3-cyclohexylpropan-1-ol] | 26 nM | 1100 nM | 3220 nM |  | 
8 | OC(c1c(Br)ccc2cncn12)C1CCCCC1 (stereo not drawn) [Example A118, (6-bromoimidazo[1,5-a]pyridin-5-yl)(cyclohexyl)methanol] | 15 nM | 5700 nM | 420 nM |  | 
9 | OC(CC1CCCCC1)c1c(Br)ccc2cncn12 (stereo not drawn) [Example A119, 1-(6-bromoimidazo[1,5-a]pyridin-5-yl)-2-cyclohexylethan-1-ol] |  |  | 511 nM | 22 nM | 12000 nM
10 | OC(c1c(I)ccc2cncn12)C1CCCCC1 (stereo not drawn) [Example A125, cyclohexyl(6-iodoimidazo[1,5-a]pyridin-5-yl)methanol] | 31 nM | 5600 nM | 205 nM |  | 
11 | OC(CC1CCCCC1)c1c(C(F)(F)F)ccc2cncn12 (stereo not drawn) [Example A127, 2-cyclohexyl-1-(6-(trifluoromethyl)imidazo[1,5-a]pyridine-5-yl)ethan-1-ol] | 44 nM | 3500 nM | 165 nM |  | 
12 | OC(c1c(C2CC2)ccc2cncn12)C1CCCCC1 (stereo not drawn) [Example A129, cyclohexyl(6-cyclopropylimidazo[1,5-a]pyridin-5-yl)methanol] | 30 nM | 4700 nM | 69.5 nM |  | 
13 | OC(c1c(C(F)(F)F)ccc2cncn12)C1CCCC1 (stereo not drawn) [Example A133, cyclopentyl(6-(trifluoromethyl)imidazo[1,5-a]pyridin-5-yl)methanol] | 58 nM | 36000 nM | 2040 nM |  | 
14 | OC(c1c(I)ccc2cncn12)C1CC1 (stereo not drawn) [Example A134, cyclopropyl(6-iodoimidazo[1,5-a]pyridin-5-yl)methanol] | 59 nM | 26000 nM | 8610 nM |  | 
15 | OC(c1c(C2CC2)ccc2cncn12)C1CCCC1 (stereo not drawn) [Example A138, cyclopentyl(6-cyclopropylimidazo[1,5-a]pyridin-5-yl)methanol] | 25 nM | 6600 nM | 418 nM |  | 
16 | OC(CC1CCCCC1)c1c(C2CC2)ccc2cncn12 (stereo not drawn) [Example A139] | 35 nM | 2400 nM | 435 nM |  | 

Further lines, results first:

Row | IC50 (Recombinant IDO1; [2]) | IC50 (Recombinant TDO; [3]) | EC50 [1] | IC50 (Recombinant IDO1; [4]) | IC50 (Recombinant TDO; [5]) | Compound
17 | 1200 nM | 570 nM | > 10000 nM |  |  | OC(c1ccc(F)c2cncn12)C1CCCCC1 (stereo not drawn) [Example A022, cyclohexyl(8-fluoroimidazo[1,5-a]pyridin-5-yl)methanol]
18 | 67 nM | 300 nM | 1760 nM |  |  | OC(CC1CCCCC1)c1cc(Cl)cc2cncn12 (stereo not drawn) [Example A102, 1-(7-chloroimidazo[1,5-a]pyridin-5-yl)-2-cyclohexylethan-1-ol]
19 | 22 nM | 22 nM | 1510 nM |  |  | OC(c1cc(Cl)cc2cncn12)C1CCCC1 (stereo not drawn) [Example A103, (7-chloroimidazo[1,5-a]pyridin-5-yl)(cyclopentyl)methanol]
20 | 29 nM | 270 nM | 2180 nM |  |  | CC1CCC(C(O)c2cc(Cl)cc3cncn23)CC1 (stereo not drawn) [Example A104, (7-chloroimidazo[1,5-a]pyridin-5-yl)(4-methylcyclohexyl)methanol]
21 | 127 nM | 1600 nM | 1690 nM |  |  | O=C(NC1CCCC(C(O)c2cc(Cl)cc3cncn23)C1)c1cccc(Cl)c1 (stereo not drawn) [Example A105, 3-chloro-N-(3-((7-chloroimidazo[1,5-a]pyridin-5-yl)(hydroxy)methyl)cyclohexyl)benzamide]
22 | 26 nM | 110 nM | 968 nM |  |  | OC(c1cc(I)cc2cncn12)C1CCCCC1 (stereo not drawn) [Example A107, cyclohexyl(7-iodoimidazo[1,5-a]pyridin-5-yl)methanol 2,2,2-trifluoroacetate]
23 | 36 nM | 150 nM | 4440 nM |  |  | OC(c1cc(C2CC2)cc2cncn12)C1CCCCC1 (stereo not drawn) [Example A108, cyclohexyl(7-cyclopropylimidazo[1,5-a]pyridin-5-yl)methanol 2,2,2-trifluoroacetate]
24 | 66 nM | 120 nM | 2090 nM |  |  | OC(c1cc(C(F)(F)F)cc2cncn12)C1CCCC1 (stereo not drawn) [Example A110, Cyclopentyl(7-(trifluoromethyl)imidazo[1,5-a]pyridin-5-yl)methanol]
25 | 180 nM | 320 nM | 3160 nM |  |  | OC(c1cc(C(F)(F)F)cc2cncn12)C1CCCCCC1 (stereo not drawn) [Example A115, cycloheptyl(7-(trifluoromethyl)imidazo[1,5-a]pyridin-5-yl)methanol]
26 | 7.5 nM | 270 nM | 231 nM |  |  | OC(c1c(Cl)ccc2cncn12)C1CCCCC1 (stereo not drawn) [Example A116, (6-chloroimidazo[1,5-a]pyridin-5-yl)(cyclohexyl)methanol]
27 |  |  | 143 nM | 28 nM | 9700 nM | OC(CC1CCCCC1)c1c(Cl)ccc2cncn12 (stereo not drawn) [Example A117, 1-(6-chloroimidazo[1,5-a]pyridin-5-yl)-2-cyclohexylethan-1-ol]
28 | 37 nM | 3700 nM | 1410 nM |  |  | OC(c1c(Br)ccc2cncn12)C1CCCC1 (stereo not drawn) [Example A120, (6-bromoimidazo[1,5-a]pyridin-5-yl)(cyclopentyl)methanol]
29 | 28 nM | 430 nM | 268 nM |  |  | Cc1ccc2cncn2c1C(O)C1CCCCC1 (stereo not drawn) [Example A122, cyclohexyl(6-methylimidazo[1,5-a]pyridin-5-yl)methanol]
30 | 19 nM | 7900 nM | 556 nM |  |  | C#Cc1ccc2cncn2c1C(O)C1CCCCC1 (stereo not drawn) [Example A123, cyclohexyl(6-ethynylimidazo[1,5-a]pyridin-5-yl)methanol]
31 | 19 nM | 8700 nM | 275 nM |  |  | OC(CC1CCCCC1)c1c(I)ccc2cncn12 (stereo not drawn) [Example A124, 2-cyclohexyl-1-(6-iodoimidazo[1,5-a]pyridin-5-yl)ethan-1-ol]
32 | 65 nM | 3100 nM | 291 nM |  |  | OC(c1c(C(F)(F)F)ccc2cncn12)C1CCCCC1 (stereo not drawn) [Example A126, cyclohexyl(6-(trifluoromethyl)imidazo[1,5-a]pyridine-5-yl)methanol]
33 | 46 nM | 1100 nM | 2160 nM |  |  | OC(CCC1CCCCC1)c1c(Cl)ccc2cncn12 (stereo not drawn) [Example A128, 1-(6-chloroimidazo[1,5-a]pyridin-5-yl)-3-cyclohexylpropan-1-ol]
34 | 850 nM | 1700 nM | 9150 nM |  |  | OC(c1c(-c2ccccc2)ccc2cncn12)C1CCCCC1 (stereo not drawn) [Example A130, cyclohexyl(6-phenylimidazo[1,5-a]pyridin-5-yl)methanol]
35 | 28 nM | 4100 nM | 939 nM |  |  | COc1ccc2cncn2c1C(O)C1CCCCC1 (stereo not drawn) [Example A131, cyclohexyl(6-methoxyimidazo[1,5-a]pyridin-5-yl)methanol]
36 | 39 nM | 2700 nM | 54 nM |  |  | CC(C)c1ccc2cncn2c1C(O)C1CCCCC1 (stereo not drawn) [Example A135, cyclohexyl(6-isopropylimidazo[1,5-a]pyridin-5-yl)methanol]
37 | 30 nM | 3300 nM | 1610 nM |  |  | C=C(C)c1ccc2cncn2c1C(O)C1CCCCC1 (stereo not drawn) [Example A136, cyclohexyl(6-(prop-1en-2-yl)imidazo[1,5-a]pyridin-5-yl)methanol]
